Reference: patent US20250161337A1, “IMMUNOSUPPRESSIVE COMPOSITION CONTAINING L-AHG” (Kyungpook National University Industry-Academic Cooperation …, priority 2022, published 2025)

Tests used:
Assay type in all cases: cell-based, mouse
[1] = tested on: T cells activated with immobilized anti-CD3/anti-CD28; assay: [3H]-thymidine incorporation (proliferation) of G0 T cells activated with immobilized anti-CD3/anti-CD28; conditions: for effect on [3H]thymidine incorporation of activated T cells: 25 to 400 μg/mL
Description: (§1) Isolation of resting (G0) T lymphocytes from spleens from 4-5-month-old C57BL/6J male mice was performed by a negative selection method from splenocytes using a T cell purification column kit (R&D Systems, Minneapolis, Minn., USA). At this time, the activation of G0 T cells was performed using a modification of the method of Kim et al., wherein pretreatment with rabbit anti-hamster IgG antibody (20 μg/mL) was performed so that the surface of the culture plastic container was smoothly coated with anti-CD3 (2.0 μg/mL) and anti-CD28 (2.0 μg/mL).
To evaluate the proliferation of T cells activated by immobilized anti-CD3/anti-CD28, 1×10^5 G0 T cells and each concentration of L-AHG together with 200 μL of RPMI 1640 complete medium were added to each well of a 96-well plate coated with anti-CD3 (2.0 μg/mL) and anti-CD28 (2.0 μg/mL), and activation of the cells was initiated by culture. At 29 hours after the activation, 0.25 μCi of [^3H]-thymidine was added to each well, and the amount of [^3H]-thymidine incorporated into the DNA of proliferating T cells was quantified by a liquid scintillation counter while the cells were further cultured for 12 hours.
First, using a 96-well plate, resting T cells (1×10^5 G0 T cells/well) were stimulated and activated with immobilized anti-CD3/anti-CD28 in the presence of various concentrations (0, 12.5, 25, 50, 100, 200, and 400 μg/mL) of L-AHG, NA2, NA4, or NA6. At 29 hours after the activation, 0.25 μCi of [^3H]thymidine was added to each well, followed by further culturing for an additional 12 hours. The amount of [^3H]thymidine incorporated into DNA following the T cell proliferation that occurred during this additional culturing time was quantified with a liquid scintillation counter, thereby determining the degree of T cell proliferation that occurred in each well.

[2] = tested on: CD4 T cells; assay: First cell cycle progression of activated resting CD4 T cells, nocodazole arrest, DAPI flow cytometry
Description: as §1
(§2) To analyze the cell cycle of T cells activated by immobilized anti-CD3/anti-CD28 or to analyze the cytokine concentration in the culture supernatant, 3×10^6 G0 T cells and each concentration of L-AHG together with 2 mL of RPMI 1640 complete medium were added to each well of a 35-mm plate coated with anti-CD3 (2.0 μg/mL) and anti-CD28 (2.0 μg/mL), and activation of the cells was initiated by culture. At 30 hours after the activation, the culture was stopped and the cells and the culture supernatant were recovered by centrifugation.
(§3) Under the same culture conditions, in order for the first cell cycle progression initiated by the activation of G0 T cells to be arrested in prometaphase by nocodazole treatment, T lymphocytes were activated for 20 hours, and then nocodazole was added thereto at a concentration of 0.2 μg/mL, followed by followed by further culturing for an additional 10 hours. After completion of the culturing, the culture was centrifuged to recover the cells and the culture supernatant.
(§4) Resting (G0) T cells isolated from mouse splenocytes using a T cell purification column kit (R & D) and T cells obtained by activating G0 T cells with immobilized anti-CD3/anti-CD28 for a given period of time were subjected to anti-CD3, anti-CD4, anti-CD8, and DAPI staining.
(§5) About 5×10^5 cells were suspended in 100 μL of 1×PBS/1% FBS solution, and then 0.5 μg of anti-CD3, 0.5 μg of anti-CD4, and 0.5 μg of anti-CD8 were added thereto and allowed to react at 4° C. for 15 minutes, followed by washing twice with 1×PBS/1% FBS solution. Subsequently, the cells were fixed with 1% paraformaldehyde solution at 4° C. for 15 minutes, and the fixed cells were washed twice with 1×PBS solution and then stained with 10 μM DAPI for 15 minutes. The stained cells were analyzed with an Attune NxT flow cytometer (Thermo Fisher Scientific, Waltham, MA, USA) to determine the proportions of CD3 T cells, CD4 T cells, and CD8 T cells and the cell cycle distribution based on the increase in blue fluorescence depending on the amount of DAPI bound to intracellular DNA.
To this end, resting T cells were stimulated and activated with immobilized anti-CD3/anti-CD28, and when these cells reached the time point at which S phase started following G0 exit and G1 entry and progression, that is, when 20 hours have elapsed after the activation, the microtubule depolymerization agent nocodazole (a cell cycle-arresting agent that arrests cell cycle progression of eukaryotic cells at the prometaphase of M phase) was added to the cells, followed by further culturing for 10 hours. Through this unique experimental method, the first cell cycle initiated following the activation of resting T cells was allowed to progress through the G1, S, and G2 phases, and then arrest in the prometaphase of M phase due to microtubule damage caused by the effect of nocodazole. Then, these cells were recovered, treated and stained with fluorescently labeled anti-CD4 antibody, fluorescently labeled anti-CD8 antibody, and the DNA fluorescent staining reagent DAPI, and analyzed with a flow cytometer. As a result, the present inventors investigated how the aspect of the first cell cycle progression (G1, S, and G2/M phases), which is initiated following the activation of resting CD4 T cells and resting CD8 T cells, is affected by L-AHG.

[3] = tested on: CD8 T cells; assay: First cell cycle progression of activated resting CD8 T cells, nocodazole arrest, DAPI flow cytometry
Description: as §1, §2, §3, §4, §5
To this end, resting T cells were stimulated and activated with immobilized anti-CD3/anti-CD28, and when these cells reached the time point at which S phase started following G0 exit and G1 entry and progression, that is, when 20 hours have elapsed after the activation, the microtubule depolymerization agent nocodazole (a cell cycle-arresting agent that arrests cell cycle progression of eukaryotic cells at the prometaphase of M phase) was added to the cells, followed by further culturing for 10 hours. […] Then, these cells were recovered, treated and stained with fluorescently labeled anti-CD4 antibody, fluorescently labeled anti-CD8 antibody, and the DNA fluorescent staining reagent DAPI, and analyzed with a flow cytometer. […]

[4] = tested on: IFN-γ; assay: IFN-γ in culture supernatant of activated T cells, ELISA; conditions: 30 h after activation
Description: as §2
(§6) After recovering the culture supernatant of T cells, the concentrations of IFN-γ, IL-2, IL-4 and IL-13 therein were analyzed using an ELISA kit (Mouse Uncoated Elisa Kit, Invitrogen) according to the manufacturer's instructions. […] The reaction was terminated by adding 100 μl of a reaction stop solution to each well, and the absorbances at wavelengths of 450 nm and 570 nm were measured with a Varioskan Lux Multimode Microplate Reader (Thermo Fisher Scientific). At this time, the value obtained by subtracting the absorbance measured at a wavelength of 570 nm from the absorbance measured at a wavelength of 450 nm was compared with a standard curve to determine the concentrations of cytokines present in the culture supernatant. […]

[5] = tested on: IL-2; assay: IL-2 in culture supernatant of activated T cells, ELISA; conditions: 25, 50, and 100 μg/mL; 30 h after activation
Description: as §2, §6

[6] = tested on: IL-4; assay: IL-4 in culture supernatant of activated T cells, ELISA; conditions: 30 h after activation
Description: as §2, §6

[7] = tested on: IL-13; assay: IL-13 in culture supernatant of activated T cells, ELISA; conditions: 25, 50, and 100 μg/mL; 30 h after activation
Description: as §2, §6

[8] = 100 μg/mL, 30 h after activation, nocodazole from 20 h

O=C[C@@H](O)[C@@H]1OC[C@H](O)[C@H]1O [L-AHG, 3,6-anhydro-L-galactose]
effect on the proliferation of activated T cells ([3H]thymidine incorporation) ([1]; 12.5 μg/ml, [3H]thymidine added 29 h after activation, 12 h further culture): no significant effect
[3H]thymidine incorporation relative to untreated control group ([1]; 100 μg/mL): about 22%
effect on [3H]thymidine incorporation of activated T cells [1]: inhibited [^3H]thymidine incorporation in a concentration-dependent manner
[3H]thymidine incorporation ([1]; 200 to 400 μg/mL): significantly decreased to an unmeasurable level
percentage of G1-phase CD4 T cells [2, 8]: 35.4%
percentage of G2/M phase CD4 T cells [2, 8]: 8.8%
percentage of S-phase CD4 T cells [2, 8]: 54.6%
percentage of CD4 T cells remaining in the G1+S phase without entering G2/M ([2]; 100 μg/ml, 30 h after activation, nocodazole from 20 h): about 90.0%
apoptotic cell death (proportion of apoptotic sub-G1 cells) in CD4 T cells ([2]; 25-100 μg/mL): not induced
percentage of CD4 T cells remaining in G1 and S phases without entering G2/M ([2]; 25 to 100 μg/ml, nocodazole from 20 h): increased in a manner dependent on the concentration
change in the percentage of G1-phase CD8 T cells [3, 8]: negligible
percentage of G2/M CD8 T cells [3, 8]: 41.8%
percentage of S-phase CD8 T cells [3, 8]: 46.6%
apoptotic cell death (proportion of apoptotic sub-G1 cells) in CD8 T cells ([3]; 25-100 μg/mL): not induced
cell cycle progression after activation of resting CD8 T cells ([3]; 25 to 50 μg/mL, nocodazole from 20 h): hardly affected
IFN-γ concentration in culture supernatant ([4]; 25 μg/mL): hardly affected
IFN-γ concentration in culture supernatant ([4]; 25, 50, and 100 μg/mL): significantly decreased
IL-2 concentration in culture supernatant [5]: significantly decreased
IL-4 concentration relative to untreated control group ([6]; 25 μg/mL): 38.5%
IL-4 concentration in culture supernatant ([6]; 25, 50, and 100 μg/mL): significantly decreased
IL-13 concentration in culture supernatant [7]: significantly decreased

OC[C@H]1OC(O)[C@H](O)[C@@H](O[C@@H]2O[C@H]3CO[C@@H]([C@@H]2O)[C@@H]3O)[C@H]1O (stereo partly drawn) [NA2, neoagarobiose, reference compound]
effect on [3H]thymidine incorporation of activated T cells [1]: no significant effect

OC[C@H]1O[C@@H](O)[C@H](O)[C@@H](O[C@@H]2O[C@H]3CO[C@@H]([C@@H]2O)[C@@H]3O[C@@H]2O[C@H](CO)[C@H](O)[C@H](O[C@@H]3O[C@H]4CO[C@@H]([C@@H]3O)[C@@H]4O)[C@H]2O)[C@H]1O [NA4, neoagarotetraose, reference compound]
effect on [3H]thymidine incorporation of activated T cells [1]: no significant effect

OC[C@H]1O[C@@H](O)[C@H](O)[C@@H](O[C@@H]2O[C@H]3CO[C@@H]([C@@H]2O)[C@@H]3O[C@@H]2O[C@H](CO)[C@H](O)[C@H](O[C@@H]3O[C@H]4CO[C@@H]([C@@H]3O)[C@@H]4O[C@@H]3O[C@H](CO)[C@H](O)[C@H](O[C@@H]4O[C@H]5CO[C@@H]([C@@H]4O)[C@@H]5O)[C@H]3O)[C@H]2O)[C@H]1O [NA6, neoagarohexaose, reference compound]
effect on [3H]thymidine incorporation of activated T cells [1]: no significant effect
